{"source": "PubChem BioAssay AID2060607", "about": "(Molecular Pharmacology Branch, DTP, NCI, 2025)", "system": "876862-298-R-J1-PDC complex spheroids, viability % test/control", "experiment": "Anticancer human tumor 876862-298-R-J1-PDC patient-derived endometrial carcinoma cell line growth inhibition [CLK]", "details": "for pIC50: curve of first compound; for viability, T/C: stronger effect = lower value", "summary_of_the_method": "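Multi-cell-type spheroids combined patient-derived tumor cells with HUVEC endothelial cells and human mesenchymal stem cells. Paired agents were dosed in half-log steps down from about clinical Cmax, or from 10 microM where Cmax was unknown.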", "note": "pIC50: −log10 of the molar value.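 Also: spheroids exposed to drugs for 7 days before readout.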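 For viability, T/C in this document: 100% = DMSO vehicle control wells.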", "data": [{"smiles": "CC(C)CC(NC(=O)C(Cc1ccccc1)NC(=O)c1cnccn1)B(O)O", "note": "(centres undefined) + CN1CCN(c2cc(C(=O)Nc3cc4cc(-c5cnn(C)c5)ccc4cn3)ccn2)CC1", "values": [{"measurement": "pIC50", "setting": "second compound 0.0316 µM", "result": 8.75}, {"measurement": "pIC50", "setting": "second compound 0.1 µM", "result": 9.01}, {"measurement": "pIC50", "setting": "second compound 0.316 µM", "result": "> 9.02"}, {"measurement": "pIC50", "setting": "second compound 1 µM", "result": "> 9.02"}, {"measurement": "pIC50", "setting": "second compound 3.16 µM", "result": "> 9.02"}, {"measurement": "pIC50", "setting": "second compound 10 µM", "result": "> 9.02"}, {"measurement": "viability, T/C", "setting": "second compound 0.0316 µM, first compound 0.000949 µM", "result": 92.9, "unit": "%"}, {"measurement": "viability, T/C", "setting": "second compound 0.0316 µM, first compound 0.003 µM", "result": 13.8, "unit": "%"}, {"measurement": "viability, T/C", "setting": "second compound 0.0316 µM, first compound 0.00949 µM", "result": 1.49, "unit": "%"}, {"measurement": "viability, T/C", "setting": "second compound 0.0316 µM, first compound 0.03 µM", "result": 0.54, "unit": "%"}, {"measurement": "viability, T/C", "setting": "second compound 0.0316 µM, first compound 0.0949 µM", "result": 0.87, "unit": "%"}, {"measurement": "viability, T/C", "setting": "second compound 0.0316 µM, first compound 0.3 µM", "result": 0.26, "unit": "%"}, {"measurement": "viability, T/C", "setting": "second compound 0.1 µM, first compound 0.000949 µM", "result": 50.9, "unit": "%"}, {"measurement": "viability, T/C", "setting": "second compound 0.1 µM, first compound 0.003 µM", "result": 9.76, "unit": "%"}, {"measurement": "viability, T/C", "setting": "second compound 0.1 µM, first compound 0.00949 µM", "result": 0.72, "unit": "%"}, {"measurement": "viability, T/C", "setting": "second compound 0.1 µM, first compound 0.03 µM", "result": 0.44, "unit": "%"}, {"measurement": "viability, T/C", "setting": "second compound 0.1 µM, first compound 0.0949 µM", "result": 0.43, "unit": "%"}, {"measurement": "viability, T/C", "setting": "second compound 0.1 µM, first compound 0.3 µM", "result": 0.26, "unit": "%"}, {"measurement": "viability, T/C", "setting": "second compound 0.316 µM, first compound 0.000949 µM", "result": 2.77, "unit": "%"}, {"measurement": "viability, T/C", "setting": "second compound 0.316 µM, first compound 0.003 µM", "result": 0.46, "unit": "%"}, {"measurement": "viability, T/C", "setting": "second compound 0.316 µM, first compound 0.00949 µM", "result": 1.45, "unit": "%"}, {"measurement": "viability, T/C", "setting": "second compound 0.316 µM, first compound 0.03 µM", "result": 0.39, "unit": "%"}, {"measurement": "viability, T/C", "setting": "second compound 0.316 µM, first compound 0.0949 µM", "result": 0.5, "unit": "%"}, {"measurement": "viability, T/C", "setting": "second compound 0.316 µM, first compound 0.3 µM", "result": 0.26, "unit": "%"}, {"measurement": "viability, T/C", "setting": "second compound 1 µM, first compound 0.000949 µM", "result": 0.6, "unit": "%"}, {"measurement": "viability, T/C", "setting": "second compound 1 µM, first compound 0.003 µM", "result": 0.27, "unit": "%"}, {"measurement": "viability, T/C", "setting": "second compound 1 µM, first compound 0.00949 µM", "result": 0.45, "unit": "%"}, {"measurement": "viability, T/C", "setting": "second compound 1 µM, first compound 0.03 µM", "result": 0.53, "unit": "%"}, {"measurement": "viability, T/C", "setting": "second compound 1 µM, first compound 0.0949 µM", "result": 0.45, "unit": "%"}, {"measurement": "viability, T/C", "setting": "second compound 1 µM, first compound 0.3 µM", "result": 0.57, "unit": "%"}, {"measurement": "viability, T/C", "setting": "second compound 3.16 µM, first compound 0.000949 µM", "result": 1.3, "unit": "%"}, {"measurement": "viability, T/C", "setting": "second compound 3.16 µM, first compound 0.003 µM", "result": 0.5, "unit": "%"}, {"measurement": "viability, T/C", "setting": "second compound 3.16 µM, first compound 0.00949 µM", "result": 0.68, "unit": "%"}, {"measurement": "viability, T/C", "setting": "second compound 3.16 µM, first compound 0.03 µM", "result": 0.95, "unit": "%"}, {"measurement": "viability, T/C", "setting": "second compound 3.16 µM, first compound 0.0949 µM", "result": 0.69, "unit": "%"}, {"measurement": "viability, T/C", "setting": "second compound 3.16 µM, first compound 0.3 µM", "result": 0.43, "unit": "%"}, {"measurement": "viability, T/C", "setting": "second compound 10 µM, first compound 0.000949 µM", "result": 0.67, "unit": "%"}, {"measurement": "viability, T/C", "setting": "second compound 10 µM, first compound 0.003 µM", "result": 0.32, "unit": "%"}, {"measurement": "viability, T/C", "setting": "second compound 10 µM, first compound 0.00949 µM", "result": 1.9, "unit": "%"}, {"measurement": "viability, T/C", "setting": "second compound 10 µM, first compound 0.03 µM", "result": 0.44, "unit": "%"}, {"measurement": "viability, T/C", "setting": "second compound 10 µM, first compound 0.0949 µM", "result": 0.42, "unit": "%"}, {"measurement": "viability, T/C", "setting": "second compound 10 µM, first compound 0.3 µM", "result": 0.27, "unit": "%"}]}, {"smiles": "O=C(c1cc(Cc2n[nH]c(=O)c3ccccc23)ccc1F)N1CCN(C(=O)C2CC2)CC1", "note": "+ CN1CCN(c2cc(C(=O)Nc3cc4cc(-c5cnn(C)c5)ccc4cn3)ccn2)CC1", "values": [{"measurement": "pIC50", "setting": "second compound 0.0316 µM", "result": "< 5.00"}, {"measurement": "pIC50", "setting": "second compound 0.1 µM", "result": 6.20}, {"measurement": "pIC50", "setting": "second compound 0.316 µM", "result": "> 7.50"}, {"measurement": "pIC50", "setting": "second compound 1 µM", "result": "> 7.50"}, {"measurement": "pIC50", "setting": "second compound 3.16 µM", "result": "> 7.50"}, {"measurement": "pIC50", "setting": "second compound 10 µM", "result": "> 7.50"}, {"measurement": "viability, T/C", "setting": "second compound 0.0316 µM, first compound 0.0316 µM", "result": 88.1, "unit": "%"}, {"measurement": "viability, T/C", "setting": "second compound 0.0316 µM, first compound 0.1 µM", "result": 95.5, "unit": "%"}, {"measurement": "viability, T/C", "setting": "second compound 0.0316 µM, first compound 0.316 µM", "result": 85.7, "unit": "%"}, {"measurement": "viability, T/C", "setting": "second compound 0.0316 µM, first compound 1 µM", "result": 94.9, "unit": "%"}, {"measurement": "viability, T/C", "setting": "second compound 0.0316 µM, first compound 3.16 µM", "result": 96.2, "unit": "%"}, {"measurement": "viability, T/C", "setting": "second compound 0.0316 µM, first compound 10 µM", "result": 74.6, "unit": "%"}, {"measurement": "viability, T/C", "setting": "second compound 0.1 µM, first compound 0.0316 µM", "result": 51.3, "unit": "%"}, {"measurement": "viability, T/C", "setting": "second compound 0.1 µM, first compound 0.1 µM", "result": 50.5, "unit": "%"}, {"measurement": "viability, T/C", "setting": "second compound 0.1 µM, first compound 0.316 µM", "result": 50.9, "unit": "%"}, {"measurement": "viability, T/C", "setting": "second compound 0.1 µM, first compound 1 µM", "result": 50.6, "unit": "%"}, {"measurement": "viability, T/C", "setting": "second compound 0.1 µM, first compound 3.16 µM", "result": 45, "unit": "%"}, {"measurement": "viability, T/C", "setting": "second compound 0.1 µM, first compound 10 µM", "result": 35.2, "unit": "%"}, {"measurement": "viability, T/C", "setting": "second compound 0.316 µM, first compound 0.0316 µM", "result": 2.72, "unit": "%"}, {"measurement": "viability, T/C", "setting": "second compound 0.316 µM, first compound 0.1 µM", "result": 3.01, "unit": "%"}, {"measurement": "viability, T/C", "setting": "second compound 0.316 µM, first compound 0.316 µM", "result": 2.89, "unit": "%"}, {"measurement": "viability, T/C", "setting": "second compound 0.316 µM, first compound 1 µM", "result": 3.34, "unit": "%"}, {"measurement": "viability, T/C", "setting": "second compound 0.316 µM, first compound 3.16 µM", "result": 3.07, "unit": "%"}, {"measurement": "viability, T/C", "setting": "second compound 0.316 µM, first compound 10 µM", "result": 2.03, "unit": "%"}, {"measurement": "viability, T/C", "setting": "second compound 1 µM, first compound 0.0316 µM", "result": 0.78, "unit": "%"}, {"measurement": "viability, T/C", "setting": "second compound 1 µM, first compound 0.1 µM", "result": 1.06, "unit": "%"}, {"measurement": "viability, T/C", "setting": "second compound 1 µM, first compound 0.316 µM", "result": 0.79, "unit": "%"}, {"measurement": "viability, T/C", "setting": "second compound 1 µM, first compound 1 µM", "result": 0.54, "unit": "%"}, {"measurement": "viability, T/C", "setting": "second compound 1 µM, first compound 3.16 µM", "result": 0.67, "unit": "%"}, {"measurement": "viability, T/C", "setting": "second compound 1 µM, first compound 10 µM", "result": 0.77, "unit": "%"}, {"measurement": "viability, T/C", "setting": "second compound 3.16 µM, first compound 0.0316 µM", "result": 1.02, "unit": "%"}, {"measurement": "viability, T/C", "setting": "second compound 3.16 µM, first compound 0.1 µM", "result": 0.99, "unit": "%"}, {"measurement": "viability, T/C", "setting": "second compound 3.16 µM, first compound 0.316 µM", "result": 1.13, "unit": "%"}, {"measurement": "viability, T/C", "setting": "second compound 3.16 µM, first compound 1 µM", "result": 1.07, "unit": "%"}, {"measurement": "viability, T/C", "setting": "second compound 3.16 µM, first compound 3.16 µM", "result": 2.34, "unit": "%"}, {"measurement": "viability, T/C", "setting": "second compound 3.16 µM, first compound 10 µM", "result": 1.07, "unit": "%"}, {"measurement": "viability, T/C", "setting": "second compound 10 µM, first compound 0.0316 µM", "result": 0.83, "unit": "%"}, {"measurement": "viability, T/C", "setting": "second compound 10 µM, first compound 0.1 µM", "result": 0.87, "unit": "%"}, {"measurement": "viability, T/C", "setting": "second compound 10 µM, first compound 0.316 µM", "result": 0.89, "unit": "%"}, {"measurement": "viability, T/C", "setting": "second compound 10 µM, first compound 1 µM", "result": 1.19, "unit": "%"}, {"measurement": "viability, T/C", "setting": "second compound 10 µM, first compound 3.16 µM", "result": 1.06, "unit": "%"}, {"measurement": "viability, T/C", "setting": "second compound 10 µM, first compound 10 µM", "result": 0.83, "unit": "%"}]}]}
